The record followed here is a melting point compilation (Tetko et al.; mined from patent text by program, amines drawn as free bases though some values may be those of a salt).

A word on the melting point: it is the temperature, or range, at which the solid turns liquid. `Cc1ccc2c(=O)nc(-c3cccc(CCC(=O)OC(C)(C)C)n3)sc2c1` came in with a melting point of 135 °C.

Consider `O=C(Nc1ccc(C(F)(F)F)cc1)Nc1ccc2[nH]c(C(F)(F)F)nc2c1`, for which the melting point was in the range of 223 to 228 °C.

Compound `COc1cccc(CN2C(=NCCCn3ccnc3)c3cccc4cccc2c34)c1` displayed a melting point of 95 to 96 °C.

The compound `Cn1c(=O)[nH]c2c(C(N)=O)nc(-c3cccnc3)nc21` registered a melting point greater than 350 °C.

Consider `Cc1cc(Br)c2ncn([C@H](C)[C@](O)(Cn3cncn3)c3ccc(F)cc3F)c(=O)c2c1`, for which the melting point was 116 to 123 °C.

The compound `O=C(O)CCn1c(=O)n(CCCCN2CCC(OC(c3ccccc3)c3ccccc3)CC2)c(=O)c2ccccc21` came in with a melting point of 110 to 112 °C.

Take `CCOC(=O)c1csnc1-c1ccc(C(F)(F)F)cc1`: the melting point lay within 63 to 64 °C.

As to `N#Cc1ccccc1Oc1cc(-n2cccc2)ccc1O`, the melting point was 120 to 122 °C.

`Cc1ccnc(NC(=O)c2ccn3c2CSC3c2cccnc2)c1` (stereo not given) had a melting point of 163 °C.

`Cc1cc(C)c(S(=O)(=O)OS(=O)(=O)c2c(C)cc(C)cc2C)c(C)c1` showed a melting point of 194 to 198 °C.

Regarding `Nc1nc2c(sc(=O)n2C2OC(COC(=O)c3ccccc3)C(OC(=O)c3ccccc3)C2F)c(=O)[nH]1` (stereo not given), the melting point is 282 to 284 °C.

Compound `O=C(C1CCN(S(=O)(=O)c2ccc(Cl)cc2)CC1)N1CCN(c2ccncn2)CC1` showed a melting point of 125 to 128 °C.

Compound `O=S1(=O)c2ccccc2N(c2cc(F)cc(F)c2)c2ccccc21` gave a melting point of 255 to 258 °C.

`CCCc1nc(C(O)C(C)(C)C)c(C(N)=O)n1Cc1ccc(-c2ccccc2C(=O)C(=O)O)cc1` (stereo not given) returned a melting point of 128 to 130 °C.

As to `Cc1noc(C)c1C(=O)Nc1ccc(-n2nc(C(F)(F)F)cc2C2CC2)c(F)c1`, the melting point is 163 to 165 °C.

In the case of `N#CCCn1cccc1-c1ccc2cnc(Nc3cccc(N4CCCC4=O)c3)nn12`, the melting point fell in the range of 60 to 67 °C.

Compound `CCN(CC)Cc1nc2cc(OC)c(OC)cc2c(-c2ccc(OC)c(OC)c2)c1C(C)=O` came in with a melting point of 146 to 148 °C.

With `COc1ccc(C(=O)Nc2ccc3ccc(Cl)nc3n2)cn1`, the melting point was found to be 270 °C.

Regarding `N#CC1CCc2c(OCCn3ccnc3)cccc21` (stereo not given), the melting point lay in the range of 115 to 117 °C.

In the case of `Cn1cnc2c(cnn2-c2ncc(C(F)(F)F)cc2Cl)c1=O`, the melting point was 253 °C.

The compound `ONc1cccc(OCc2nc3ccccc3s2)c1` yielded a melting point of 112 to 114 °C.

As for `COC(=O)Nc1ccc(Br)c(F)c1`, the melting point lay within 121 to 122 °C.

`NS(=O)(=O)c1ccc(NC(=O)Nc2ccccc2-c2ccccc2)cc1` came in with a melting point of 229 to 231 °C.

Take `CC(C)(CO)c1ccc(C(=O)Nc2cn3cc(-c4cn[nH]c4)ccc3n2)cc1`: the melting point is 293 to 296 °C.

With `CSc1c(O[C@@H]2CCC[C@H](N3C(=O)c4ccccc4C3=O)C2)ccc2[nH]ncc12` (relative stereo), the melting point lay within 156 to 157 °C.

Regarding `CCOC(=O)C(=O)Nc1cc(C#N)cc([N+](=O)[O-])c1`, the melting point lay within 114 to 116 °C.

The compound `Nc1nc(Cl)c2ncn(OCC(O)CO)c2n1` (stereo not given) showed a melting point of 155 to 158 °C.

Turning to `COc1ccc(C2(C)C(=O)c3c(Cl)cc(Cl)cc3N(Cc3ccccc3)C2=O)cc1` (stereo not given), the melting point is 159 to 160 °C.

Turning to `Cc1cccc(NC(=O)NCC(=O)N(CC(=O)OC2(C)CCCC2)c2ccccc2)c1`, the melting point is 160 °C.

Take `Nc1ccc(C2CCOCC2)cc1`: the melting point is 122 °C.

For the compound `C[Si](C)(C)CCC1=C(OC(=O)c2ccccc2)C(=O)c2ccccc2C1=O`, the melting point lay in the range of 92 to 95 °C.

As to `CN(C)C(=O)C(=O)c1c[nH]c2ccc(Br)cc12`, the melting point is 189 to 190 °C.

`CCC(C(=O)C(C)C(O)C(C)CCc1c(N)cc(C)c(O)c1C(=O)O)C1OC(CC)(C2CCC(O)(CC)C(C)O2)CC1C` (stereo not given) returned a melting point of 223 to 225 °C.

Take `O=CCCN1CCc2cc(Br)ccc2C1=O`: the melting point fell in the range of 93 to 94 °C.

Compound `COc1cccc(Nc2n[nH]c(N)c2C#N)c1` registered a melting point of 177 to 180 °C.

As to `CN(CC(=O)O)C(=O)Nc1ccc(Cl)c(Cl)c1`, the melting point fell in the range of 103 to 105 °C.

Turning to `OC1(CN2CC2)COc2ccccc2OC1`, the melting point fell in the range of 98 to 99.5 °C.

Compound `OCCOc1ccc2cccnc2c1` came in with a melting point of 93 to 95 °C.

With `O=S(=O)(O)CCCCCCN1CCN(Cc2ccccc2)CC1`, the melting point fell in the range of 228 to 230 °C.

`O=C(CC1CCCCC1)Nc1c(Cl)ccc2nc(N3CC[C@@H](O)C3)ccc12` came in with a melting point of 219 to 221 °C.

Compound `CN(C)C1CCc2[nH]c3cccc(Cl)c3c2C1` (stereo not given) displayed a melting point of 212 to 214 °C.

In turn, `CNC(=O)C=C1CSc2c(C(=O)OC(C)C)c(C)cn21` returned a melting point of 173 to 175 °C.

`Cc1nc(-c2cn(CCc3ccc(F)cc3)nn2)sc1C(=O)NCc1ccccc1` showed a melting point of 181 to 182 °C.

As to `CC(Cl)(Cl)c1nc2c(C(F)(F)F)cccc2c(=O)o1`, the melting point was determined as 120 °C.

The compound `CC(=O)NC(C(=O)NCc1ccncc1)c1ccco1` (stereo not given) had a melting point of 168 to 170 °C.

`O=Cc1cnc2sc3c(n12)CCCCCC3` displayed a melting point of 106 to 107 °C.

`O=C(O)CP(=O)(O)C[C@H](Cc1ccccc1)NC(=O)c1ccccc1` showed a melting point of 105 to 107 °C.

`COc1ccc(C(=O)C2=CCCCC2)c(Cl)c1Cl` displayed a melting point of 126 to 129 °C.

On to `CCOC(=O)C(NC(=O)OC(C)(C)C)c1csc(N)n1` (stereo not given), for which the melting point fell in the range of 143 to 144 °C.

`Cn1cccc1-c1cc2cccnc2[nH]1` showed a melting point of 183 °C.

As for `CC(C)(C)c1nnc(Oc2ccc(N)cc2)o1`, the melting point was 80 to 81 °C.

For `Brc1cc(Br)c(OC2C=CCC2)c(I)c1` (stereo not given), the melting point fell in the range of 57 to 58 °C.

`Cc1c(-c2ccccc2)sc2c1c(=O)c(C(=O)O)cn2Cc1c(F)cccc1F` registered a melting point of 286 to 289 °C.

In turn, `CC(C)(C)c1ccc(C=O)cc1NC(=O)CC1c2ccccc2Oc2ccccc21` yielded a melting point of 172 to 174 °C.

`O=[N+]([O-])c1ccc(Cl)cc1OCC=Cc1ccccc1` returned a melting point of 74.5 to 75.5 °C.

For the compound `CC12C=CC(=O)C=C1C(Br)CC1C2CCC2(C)C(=O)CCC12` (stereo not given), the melting point was 188 to 190 °C.

Compound `Cc1ccc(C(NC(N)=S)c2ccccc2)cc1` (stereo not given) had a melting point of 167 to 168 °C.

`O=[N+]([O-])c1cnc2cc(Cl)ccc2c1Nc1ccc(F)cc1` came in with a melting point of 198 to 200 °C.

`N#Cc1cc(=O)c2c(o1)c1ccccc1n2-c1ccccc1` showed a melting point of 192 to 193 °C.

Compound `COC(=O)c1nn(C2CCCCO2)cc1NC(=O)c1ccc(C)nc1` (stereo not given) displayed a melting point of 142 to 143 °C.

As to `CN(C)C1CCN(C(=O)C2CCC(Nc3nccc(-n4ccc5c(OCCCS(C)(=O)=O)cccc54)n3)CC2)CC1` (stereo not given), the melting point lay within 182 to 183 °C.

In turn, `N#CC=Cc1ccc(C(=O)O)cc1` came in with a melting point of 281 °C.

The compound `O=C(Cc1ccc(F)cc1)c1c(O)c2cccnc2n(-c2cccc(OC(F)(F)F)c2)c1=O` returned a melting point of 137 to 138 °C.

In turn, `C#CCN(C)CC1=Cc2ccccc2Oc2ccccc21` displayed a melting point of 66 to 67 °C.

As to `Cn1cccc1C(=O)Nc1cccc(/C=C/C(=O)O)c1`, the melting point was in the range of 202 to 204 °C.

`Cn1cc2c(n1)-c1cnn(C)c1CC2(C)C`: the melting point was in the range of 172 to 173 °C.

With `CC(C)OC(=O)c1cc(-n2c(Cl)nc(C(F)(F)F)cc2=O)c(F)cc1Cl`, the melting point lay within 72 to 75 °C.

`NC(=O)C(c1ccc(C(=O)O)cc1)C(Cc1ccccc1)c1ccccc1N1CCCCC1` (stereo not given): the melting point lay in the range of 214 to 215 °C.

In turn, `CN1CCN(CCCNc2ncc3cc(-c4c(Cl)cccc4Cl)c(NC(=O)NCc4ccccc4)nc3n2)CC1` displayed a melting point of 144 to 148 °C.

The compound `CC(=O)CN1CCc2c(c(=O)oc3cc(C)c([N+](=O)[O-])cc23)C1` gave a melting point of 166 to 168 °C.

Take `COc1cc2ncnc(Nc3ccc(F)c(Cl)c3)c2cc1OCC1(C)COCOC1`: the melting point was in the range of 212 to 213 °C.

In the case of `CCC(=O)NCC1CC1c1cccc2nnsc12` (stereo not given), the melting point was in the range of 67 to 69 °C.

As to `CC(C)N(CCCCS(=O)(=O)CC(=O)O)c1cnc(-c2ccccc2)c(-c2ccccc2)n1`, the melting point was in the range of 183 to 185 °C.

Take `CC(C(O)C(C)(C)Cc1ccc(Cl)c(OC(F)(F)F)c1)n1cncn1` (stereo not given): the melting point was 109 to 110 °C.

With `O=C(c1ccccc1)c1c[nH]c(=O)[nH]1`, the melting point lay in the range of 329 to 330 °C.

Turning to `O=C(N[C@H]1CC[C@H](CCN2CCN(c3nccc4c3CCO4)CC2)CC1)c1ccccc1`, the melting point amounted to 208 °C.

As to `CCOC(=O)C1=C(N(C)C)N=C(C)C(C(=O)OCC)C1c1ccccc1C(F)(F)F` (stereo not given), the melting point is 87 °C.

Take `CC1SC(=O)NN=C1c1ccc2c(c1)C(=NNc1ccc(Cl)cc1)C(=O)N2` (stereo not given): the melting point stood at 283 °C.

`CC(=O)C(=Cc1ccc(S(C)(=O)=O)c(Cl)c1)C(C)=O`: the melting point is 140 to 142 °C.

The compound `Cc1cc2c(cc1C#Cc1ccccc1)NC(=O)CC(c1cccc(-c3nccn3C)c1)=N2` gave a melting point of 202 to 205 °C.

`CCC(=O)c1ccc2c(c1)N(C(C)=O)c1ccccc1S2` gave a melting point of 146 to 147 °C.

Take `Cc1oc(-c2ccccc2)nc1COc1cccc(/C=C/C=O)c1`: the melting point lay in the range of 103 to 104 °C.

As for `Cn1ncc(CC(=O)O)c1OCCCc1cn(-c2ccc(C(F)(F)F)cn2)nc1C1CCCCC1`, the melting point lay within 137 to 138 °C.

For `N=C(N)NC(=O)Cn1c(Cc2ccccc2)ccc1-c1ccccc1`, the melting point was in the range of 82 to 84 °C.

Turning to `CC(C)(O)[C@H](CO)NC(=O)[C@@H](CC(=O)O)n1ccc(-c2ccc(-c3ccccc3)cc2)c1`, the melting point was in the range of 150 to 152 °C.

Consider `Clc1ccc2c(c1)C(=C1CCN(CC3CCC3)CC1)c1ccccc1S2`, for which the melting point is 180 to 182 °C.

`COc1cc([N+](=O)[O-])c2nccc(C)c2c1Cl`: the melting point fell in the range of 167 to 169 °C.

Compound `CC(=O)C1CCC2C3CCC4CC(O)C(N5CCOC(C)(C)C5)CC4(C)C3C(O)CC12C` (stereo not given) yielded a melting point of 182 to 185 °C.

As to `CC(C)c1cc(C(=O)Nc2ccc(CCC(=O)O)cc2)oc1C(C)C`, the melting point lay in the range of 139 to 141 °C.

In turn, `O=c1ccc(-c2ccccc2F)n[nH]1` gave a melting point of 173 to 175 °C.
